Like-named read-outs stand apart in the source and are kept apart here.
How the values were obtained:
[1] = Pharmacokinetic study of 15 LJF components in plasma of RSV-infected mice after oral LJF extract (UHPLC-QQQ MS); assay type: in vivo; parameters: Tmax: unit: h
Protocol: The LJF (12.0 g) were pulverized and soaked in pure water at a solid: liquid ratio of 1:200 and followed by extraction for 30 min. Then, the LJF extract was obtained by filtration, centrifugation (5000 rpm, 10 min) and concentration. Finally, the remains were freeze-dried and stored at −20 °C for subsequent pharmacokinetic assays.
All mice fasted for 1 night after being acclimatized for 7 days (no water restriction) and were randomly separated into 3 groups with 6 mice in each group. One group of healthy mice was used as the normal control group and administered physiological saline; the model group was established by intranasal infusion of RSV (TCID50 = 10^−6, 35 μL/mouse) and administered physiological saline. Members of the drug group were orally administered with LJF extract at the dose of 12 g/kg after infecting RSV. At 0.25 h, 0.5 h, 0.75 h, 1 h, 1.5 h, 2 h, 3 h,4 h, 6 h, 8 h, 10 h, 12 h and 24 h after administration blood samples (approximately 500 μL) were collected into anticoagulant tubes. The blood samples were centrifuged at 3500 rpm, 4 °C for 10 min, and the plasma (upper layer) was separated and stored at −80 °C till analysis. At the same time, the lung tissue was removed, weighed and placed in the EP tube together with five times the weight of the lung tissue in PBS solution containing 1% PMSF. Subsequently, the tissue samples were homogenized using the tissue grinder, and centrifugation to obtain a supernatant for further examination.
An amount of 50 μL IS and 2 mL acetonitrile were mixed into 200 μL plasma, after which the mixture was centrifuged (12,000 rpm, 4 °C, 10 min) and dried with nitrogen. The residue was dissolved in 70% acetonitrile containing 1% formic acid, centrifuged and subsequently the supernatant (2 μL) was injected into the UHPLC-QQQ-MS system.
Agilent 1260 series (Santa Clara, CA, USA) chromatography system was equipped with a solvent degasser, G1311B quaternary pump and G1329B automated injector. The elution was performed on a Halo® C18 column (2.1 × 100 mm, 2.7 μm) at 30 °C, and the mobile phase consisted of 0.05% formic acid in water for solvent A and 0.05% formic acid in acetonitrile for solvent B at a flow rate of 0.3 mL/min. The gradient elution was as follows: 0–30 min at 5–25% B, 30–35 min at 25–55% B, 35–45 min at 55–70% B, 45–55 min at 70–100% B, and 5 μL for analysis.
The MS/MS analysis was performed by Agilent 6470 Triple Quadrupole LC/MS (Santa Clara, CA, USA) with an ESI source. MRM was selected for the detection of the standards and internal standard with a dwell time of 2 ms. The mass spectrometry conditions were optimized as follows: Nebulizer pressure: 50 psi; capillary: positive: 4000 V, negative: 3500 V; cell acceleration voltage: 5 V; gas temp: 350 °C and flow rate at 10 L/min. The acquired data were processed and analyzed by Mass Hunter Workstation quantitative analysis.
Fifteen standards and IS were optimized for mass conditions by the positive and negative ion modes of the chromatographic system, respectively. The pharmacokinetics of 15 chemical constituents in RSV-infected mice were assessed using the UPLC-QQQ-MS/MS method.
The pharmacokinetic parameters, including maximum concentration (Cmax), time to reach Cmax (Tmax), the elimination half-life (T1/2), mean residence time (MRT), and area under the concentration–time curve (AUC) were calculated using non-compartmental analysis by Phoenix 8.1.0.3530.

RSV = conditions: cited from earlier work; for anti-RSV effects: by inhibiting virus–cell fusion in the early stage and cell–cell fusion at the end of the RSV replication cycle
viruses = system: viruses; parameters: method as in PMID 19904996; conditions: prevents viruses from entering cells; cited from earlier work
[2] = RSV mice plasma, oral LJF extract 12.0 g/kg
[3] = mouse, plasma, po, 12 g/kg, RSV mice plasma, oral LJF extract 12.0 g/kg, n = 6, read-out: AUC(0–t)
[4] = mouse, plasma, po, 12 g/kg, RSV mice plasma, oral LJF extract 12.0 g/kg, n = 6, read-out: AUC(0–∞)
[5] = mouse, plasma, po, 12 g/kg, RSV mice plasma, oral LJF extract 12.0 g/kg, n = 6, read-out: Cmax
[6] = mouse, plasma, po, 12 g/kg, RSV mice plasma, oral LJF extract 12.0 g/kg, n = 6, read-out: MRT(0–t)
[7] = mouse, plasma, po, 12 g/kg, RSV mice plasma, oral LJF extract 12.0 g/kg, n = 6, read-out: T1/2 (converted)
[8] = mouse, RSV mice plasma, oral LJF extract 12.0 g/kg, n = 6, read-out: Tmax
[9] = RSV mice plasma, oral LJF extract 12.0 g/kg, n = 6
[10] = mouse, in vivo, RSV mice plasma, oral LJF extract 12.0 g/kg, n = 6, read-out: Tmax
[11] = mouse, in vivo, RSV mice plasma, oral LJF extract 12.0 g/kg, n = 6, read-out: AUC(0–t)
[12] = mouse, in vivo, RSV mice plasma, oral LJF extract 12.0 g/kg, n = 6, read-out: AUC(0–∞)
[13] = mouse, in vivo, RSV mice plasma, oral LJF extract 12.0 g/kg, n = 6, read-out: Cmax
[14] = mouse, in vivo, RSV mice plasma, oral LJF extract 12.0 g/kg, n = 6, read-out: MRT(0–t)
[15] = mouse, in vivo, RSV mice plasma, oral LJF extract 12.0 g/kg, n = 6, read-out: T1/2 (converted)

SMILES | shape of the concentration–time curve [1, 2] | AUC(0-t) [1, 3] | AUC(0-inf) [1, 4] | Cmax [1, 5] | MRT last [1, 6] | half-life [1, 7] | Tmax [1, 8] | also measured
O=C(C=Cc1ccc(O)c(O)c1)OC1CC(O)(C(=O)O)CC(O)C1OC(=O)C=Cc1ccc(O)c(O)c1 (stereo not shown) [Isochlorogenic acid B] | double or multiple peaks | – | – | – | – | – | – | anti-RSV effects (RSV): specific anti-RSV effects; AUC(0–t) [1, 9]: 1100 ng·h/mL; AUC(0–∞) [1, 9]: 1740 ng·h/mL; MRT(0–t) [1, 9]: 7.35 ± 0.170 h; T1/2 [1, 9]: 24.4 ± 2.72 h; Tmax [1, 9]: 2.00 ± 0.00 h; Cmax ([1]; RSV mice plasma, oral LJF extract 12.0 g/kg, n = 6, read-out: Cmax): 415 ± 4.69 ng/mL
C[C@@H]1[C@H]2[C@H](O[C@@H]3O[C@H](CO)[C@@H](O)[C@H](O)[C@H]3O)OC=C(C(=O)O)[C@H]2C[C@@H]1O [Loganic acid] | – | 84.9 ± 12.8 ng·h/mL | 99.3 ± 18.4 ng·h/mL | 87.6 ± 10.9 ng/mL | 2.29 ± 0.337 h | 2.33 ± 0.429 h | 0.5 h | antiviral activity (viruses): significant antiviral activity
C=C[C@H]1[C@H](O[C@@H]2O[C@H](CO)[C@@H](O)[C@H](O)[C@H]2O)OC=C2C(=O)OCC[C@H]21 [Sweroside] | – | – | – | – | – | – | – | Tmax ([1]; mouse, in vivo, po, 12 g/kg): 2 h; AUC(0-t) ([1]; mouse, in vivo, po, 12 g/kg, AUC(0–t)): 14200 ng·h/mL; AUC(0-inf) ([1]; mouse, in vivo, po, 12 g/kg, AUC(0–∞)): 17200 ng·h/mL; Cmax ([1]; mouse, in vivo, po, 12 g/kg, Cmax): 4630 ng/mL; MRT last ([1]; mouse, in vivo, po, 12 g/kg, MRT(0–t)): 7.17 ± 0.274 h; half-life ([1]; mouse, in vivo, po, 12 g/kg, T1/2): 10.1 ± 2.25 h
O=c1c(O[C@@H]2O[C@H](CO)[C@@H](O)[C@H](O)[C@H]2O)c(-c2ccc(O)c(O)c2)oc2cc(O)cc(O)c12 [Isoquercitrin] | double or multiple peaks | – | – | – | – | – | – | AUC(0-t) [1, 11]: 26.5 ± 1.19 ng·h/mL; AUC(0-inf) [1, 12]: 39.6 ± 8.47 ng·h/mL; Cmax [1, 13]: 26.5 ± 1.16 ng/mL; MRT last [1, 14]: 1.5 ± 0.0366 h; half-life [1, 15]: 2.95 ± 1.72 h; Tmax [1, 10]: 0.5 h
O=C(C=Cc1ccc(O)c(O)c1)OC1CC(O)(C(=O)O)CC(O)C1OC(=O)C=Cc1ccc(O)c(O)c1 (stereo not shown) [Isochlorogenic acid C] | double or multiple peaks | 926 ± 39 ng·h/mL | 1450 ng·h/mL | 560 ± 20.7 ng/mL | 6.39 ± 0.337 h | 26.9 ± 3.16 h | 2 h | anti-RSV effects (RSV): specific anti-RSV effects
O=c1cc(-c2ccc(O)c(O)c2)oc2cc(O[C@@H]3O[C@H](CO)[C@@H](O)[C@H](O)[C@H]3O)cc(O)c12 [Luteoloside] | double or multiple peaks | – | – | – | – | – | – | time of first peak of plasma concentration [1, 2]: 30 min; time of second peak of plasma concentration [1, 2]: 2 h; AUC(0-t) [1, 11]: 15.8 ± 0.991 ng·h/mL; AUC(0-inf) [1, 12]: 15.9 ± 1.01 ng·h/mL; Cmax [1, 13]: 16.5 ± 1.97 ng/mL; MRT last [1, 14]: 1.5 ± 0.0928 h; half-life [1, 15]: 0.343 ± 0.0915 h; Tmax [1, 10]: 0.5 h

Further lines, with some results ahead:

shape of the concentration–time curve [1, 2] | AUC(0-t) [1, 3] | AUC(0-inf) [1, 4] | Cmax [1, 5] | MRT last [1, 6] | half-life [1, 7] | Tmax [1, 8] | SMILES | also measured
double or multiple peaks | 2920 ng·h/mL | 3280 ng·h/mL | 779 ± 19.2 ng/mL | 5.92 ± 0.239 h | 7.92 ± 1.1 h | 2 h | O=C(O)/C=C/c1ccc(O)c(O)c1 [Caffeic acid] | –
double or multiple peaks | – | – | – | – | – | – | C[C@@H]1O[C@@H](OC[C@H]2O[C@@H](Oc3c(-c4ccc(O)c(O)c4)oc4cc(O)cc(O)c4c3=O)[C@H](O)[C@@H](O)[C@@H]2O)[C@H](O)[C@H](O)[C@H]1O [Rutin] | time of first peak of plasma concentration [1, 2]: 30 min; time of second peak of plasma concentration [1, 2]: 2 h; AUC(0-t) ([1]; mouse, in vivo, po, 12 g/kg, RSV mice plasma, oral LJF extract 12.0 g/kg, n = 6, read-out: AUC(0–t)): 31.3 ± 4.34 ng·h/mL; AUC(0-inf) ([1]; mouse, in vivo, po, 12 g/kg, RSV mice plasma, oral LJF extract 12.0 g/kg, n = 6, read-out: AUC(0–∞)): 34.3 ± 3.33 ng·h/mL; Cmax ([1]; mouse, in vivo, po, 12 g/kg, RSV mice plasma, oral LJF extract 12.0 g/kg, n = 6, read-out: Cmax): 30 ± 2.54 ng/mL; MRT last ([1]; mouse, in vivo, po, 12 g/kg, RSV mice plasma, oral LJF extract 12.0 g/kg, n = 6, read-out: MRT(0–t)): 1.51 ± 0.0291 h; half-life ([1]; mouse, in vivo, po, 12 g/kg, RSV mice plasma, oral LJF extract 12.0 g/kg, n = 6, read-out: T1/2 (converted)): 2.03 ± 1.1 h; Tmax [1, 10]: 0.5 h
double or multiple peaks | 1070 ng·h/mL | 1450 ng·h/mL | 822 ± 53.9 ng/mL | 4.64 ± 0.289 h | 26.6 ± 4.52 h | 2 h | O=C(C=Cc1ccc(O)c(O)c1)OC1CC(O)(C(=O)O)CC(OC(=O)C=Cc2ccc(O)c(O)c2)C1O (stereo not shown) [Isochlorogenic acid A] | –
double or multiple peaks | 12100 ng·h/mL | 13500 ng·h/mL | 5730 ng/mL | 4.88 ± 0.0632 h | 10.9 ± 2.46 h | 2 h | C=C[C@H]1[C@H](O[C@@H]2O[C@H](CO)[C@@H](O)[C@H](O)[C@H]2O)OC=C2C(=O)OC(O)C[C@H]21 (stereo partly shown) [Secologanic acid] | –
double or multiple peaks | – | 27700 ng·h/mL | 4670 ng/mL | 7.19 ± 0.139 h | 8.14 ± 1.28 h | 2 h | C=C[C@H]1[C@H](O[C@@H]2O[C@H](CO)[C@@H](O)[C@H](O)[C@H]2O)OC=C(C(=O)OC)[C@H]1CC(=O)O [Secoxyloganin] | –
– | 20.9 ± 5.37 ng·h/mL | 21.3 ± 5.32 ng·h/mL | 19.6 ± 6.11 ng/mL | 2.12 ± 0.149 h | 1.96 ± 0.746 h | 2 h | O=c1cc(-c2ccc(O)c(O)c2)oc2cc(O)cc(O)c12 [Luteolin] | –
double or multiple peaks | 5190 ng·h/mL | 5900 ng·h/mL | 5600 ng/mL | 2.95 ± 0.0749 h | 26.1 ± 9.42 h | 2 h | O=C(/C=C/c1ccc(O)c(O)c1)O[C@@H]1C[C@](O)(C(=O)O)C[C@@H](O)[C@H]1O [Chlorogenic acid] | inhibition of RSV infection (RSV; modulating TLR3, TBK1, IRF3 expression, decreasing IFN-β): could inhibit RSV infection
double or multiple peaks | 1260 ng·h/mL | 1320 ng·h/mL | 1410 ng/mL | 2.79 ± 0.225 h | 13.5 ± 2.98 h | 2 h | O=C(C=Cc1ccc(O)c(O)c1)OC1C(O)CC(O)(C(=O)O)CC1O (stereo not shown) [Cryptochlorogenic acid] | –
double or multiple peaks | 21500 ng·h/mL | 22900 ng·h/mL | 2450 ng/mL | 7.37 ± 0.54 h | 5.15 ± 1.52 h | 1 h | C=C[C@H]1[C@H](O[C@@H]2O[C@H](CO)[C@@H](O)[C@H](O)[C@H]2O)OC=C2C(=O)OCC[C@]21O [Swertiamarin] | –
